Blank lines part the entries; values can stand above or below the molecule they belong to. The source made the active and inactive calls.
What was measured:
[1] = viability loss in BJeLR (HRASV12) cells, primary screen, Ras selective lethality project, cell-based, Alamar Blue, dry powder (AID 493045); format: functional
[2] = viability loss in HRASV12 DRD fibroblasts, dose response, cell-based, DRD BJ fibroblasts, dry powder (AID 493049); format: functional
[3] = cytotoxicity in BJeH fibroblasts, dose response, counter-screen for Ras selective lethality project, BJeH cells, dry powder (AID 493054); format: functional, cell-based
[4] = cytotoxicity in BJeHLT fibroblasts, dose response, counter-screen for Ras selective lethality project, BJeHLT cells, dry powder (AID 493052); format: functional, cell-based; conditions: Homo sapiens
Mu-type opioid receptor = Mu-type opioid receptor (Homo sapiens, UniProt P35372); assay: SAR Analysis of Antagonists of the MOR Receptor using an Image-Based Assay - Set 3. [Related pubchem assays (depositor defined):AID1777, AID1785, AID1786, AID1966, AID2133, AID2136, AID2284, AID2285, AID2420]; format: functional
Sequence of Mu-type opioid receptor (P35372 whole entry): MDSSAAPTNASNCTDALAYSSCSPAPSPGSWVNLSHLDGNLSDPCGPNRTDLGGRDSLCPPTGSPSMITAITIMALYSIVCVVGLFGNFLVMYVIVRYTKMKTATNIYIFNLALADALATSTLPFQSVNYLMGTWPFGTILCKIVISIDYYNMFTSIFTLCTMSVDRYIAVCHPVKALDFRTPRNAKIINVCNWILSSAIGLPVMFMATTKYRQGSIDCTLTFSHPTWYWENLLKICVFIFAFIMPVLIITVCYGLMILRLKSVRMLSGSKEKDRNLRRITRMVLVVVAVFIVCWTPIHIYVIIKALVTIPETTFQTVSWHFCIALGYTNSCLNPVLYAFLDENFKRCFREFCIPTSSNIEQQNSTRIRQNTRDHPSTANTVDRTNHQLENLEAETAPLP

[5] = target: Delta-type opioid receptor (Homo sapiens, UniProt P41143); assay: SAR Analysis of Antagonists of the DOR Receptor using an Image-Based Assay - Set 3. [Related pubchem assays (depositor defined):AID1777, AID1785]; format: functional;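 further: U2OS cells expressing DOR1 and beta-arrestin GFP stimulated with 100 nM SNC80; imaging of GFP-tagged beta-arrestin moving into spots after receptor activation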
Sequence of Delta-type opioid receptor (P41143 whole entry): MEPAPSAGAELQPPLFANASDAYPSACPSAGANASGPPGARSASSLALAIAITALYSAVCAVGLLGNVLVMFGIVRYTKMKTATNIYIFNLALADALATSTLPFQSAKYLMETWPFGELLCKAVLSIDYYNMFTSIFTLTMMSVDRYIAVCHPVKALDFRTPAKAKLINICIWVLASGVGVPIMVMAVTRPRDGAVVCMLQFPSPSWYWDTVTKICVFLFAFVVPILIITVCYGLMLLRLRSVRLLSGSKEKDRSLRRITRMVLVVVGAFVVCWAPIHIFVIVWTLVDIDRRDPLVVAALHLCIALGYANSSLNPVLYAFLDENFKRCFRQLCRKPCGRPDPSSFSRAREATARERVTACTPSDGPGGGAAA

[6] = target: T1, Kappa-type opioid receptor (Homo sapiens, UniProt P41145); assay: SAR analysis of Antagonists of the Kappa Opioid Receptor (KOR) using an Image-Based Assay - Set 4. [Related pubchem assays (depositor defined):AID1777, AID1785]; format: functional
T1 sequence (P41145 whole entry): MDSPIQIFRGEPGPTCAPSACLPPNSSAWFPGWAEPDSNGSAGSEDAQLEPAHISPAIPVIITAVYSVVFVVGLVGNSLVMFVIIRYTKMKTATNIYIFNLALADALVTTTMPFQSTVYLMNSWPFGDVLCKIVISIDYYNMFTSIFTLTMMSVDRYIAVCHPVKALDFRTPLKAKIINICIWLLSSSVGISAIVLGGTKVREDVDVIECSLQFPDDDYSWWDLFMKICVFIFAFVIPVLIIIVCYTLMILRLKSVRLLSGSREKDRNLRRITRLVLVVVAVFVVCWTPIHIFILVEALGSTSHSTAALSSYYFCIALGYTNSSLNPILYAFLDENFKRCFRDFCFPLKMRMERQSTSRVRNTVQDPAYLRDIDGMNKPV

[7] = target: T1, Kappa-type opioid receptor; assay: SAR analysis of small molecule antagonists of the kappa opioid receptor via a luminescent beta-arrestin assay - Set 4. [Related pubchem assays (depositor defined):AID1777, AID1778, AID1785, AID1786, AID1966, AID2133, AID2136, AID2285]; format: functional
[8] = THP-1 cell cytotoxicity, dose response, cytotoxicity control for Vif-APOBEC3G degradation inhibitor project, THP-1 cells (AID 1117359); format: functional; conditions: Human immunodeficiency virus 1, THP-1
Beta-galactosidase = Beta-galactosidase (Escherichia coli, UniProt Q8VNN2); assay: beta-galactosidase enzyme inhibitors and activators, dose response, artefact control for CCR6 antagonist project, biochemical, E. coli enzyme, set 3 (AID 504712); format: functional
Sequence of Beta-galactosidase (Q8VNN2 whole entry): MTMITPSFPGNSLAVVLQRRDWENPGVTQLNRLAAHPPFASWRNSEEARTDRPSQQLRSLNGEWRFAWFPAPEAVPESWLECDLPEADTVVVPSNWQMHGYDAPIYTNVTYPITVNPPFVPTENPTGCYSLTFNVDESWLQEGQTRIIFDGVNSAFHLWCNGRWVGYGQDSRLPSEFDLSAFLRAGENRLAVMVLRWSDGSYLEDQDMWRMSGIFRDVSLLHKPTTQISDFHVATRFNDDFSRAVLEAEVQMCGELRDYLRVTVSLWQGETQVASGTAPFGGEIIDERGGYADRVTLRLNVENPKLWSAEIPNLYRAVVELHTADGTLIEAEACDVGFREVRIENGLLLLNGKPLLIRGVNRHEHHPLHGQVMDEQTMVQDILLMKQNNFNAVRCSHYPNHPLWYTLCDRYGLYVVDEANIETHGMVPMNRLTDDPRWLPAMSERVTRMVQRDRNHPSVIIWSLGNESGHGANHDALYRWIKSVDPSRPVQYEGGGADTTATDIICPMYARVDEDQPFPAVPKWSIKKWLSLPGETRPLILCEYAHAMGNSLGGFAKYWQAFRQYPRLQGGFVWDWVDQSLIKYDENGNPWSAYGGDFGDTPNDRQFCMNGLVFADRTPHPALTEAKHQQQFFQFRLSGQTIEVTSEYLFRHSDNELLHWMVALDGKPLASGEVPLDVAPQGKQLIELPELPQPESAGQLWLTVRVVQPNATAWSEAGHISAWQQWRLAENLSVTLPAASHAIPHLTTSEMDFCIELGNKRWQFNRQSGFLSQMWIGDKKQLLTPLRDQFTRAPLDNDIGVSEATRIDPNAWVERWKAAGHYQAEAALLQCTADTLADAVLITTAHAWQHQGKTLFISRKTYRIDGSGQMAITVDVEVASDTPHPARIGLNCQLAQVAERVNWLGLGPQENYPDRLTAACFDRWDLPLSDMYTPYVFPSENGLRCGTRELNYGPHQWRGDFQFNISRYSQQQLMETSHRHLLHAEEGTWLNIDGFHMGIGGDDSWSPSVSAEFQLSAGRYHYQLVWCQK

[9] = inhibitors of fibronectin matrix deposition, dose response, AH1F cells, Alexa488-FN fluorescence, cherry-picks (AID 1035475); format: functional, cell-based
[10] = target: Heat shock protein HSP 90-alpha (Homo sapiens, UniProt P07900); format: functional, organism-based
[11] = A549 cell cytotoxicity, dose response, cytotoxicity control, cherry-picks, 26 µM top dose (AID 1053119); format: functional, cell-based
Genome polyprotein = Genome polyprotein (dengue virus type 2, UniProt P29990); assay: Dengue-2 NS5 methyltransferase inhibitors, primary screen, biochemical, confirmation dose response (AID 588689); format: functional
Sequence of Genome polyprotein (P29990 2492-3391 limits assumed): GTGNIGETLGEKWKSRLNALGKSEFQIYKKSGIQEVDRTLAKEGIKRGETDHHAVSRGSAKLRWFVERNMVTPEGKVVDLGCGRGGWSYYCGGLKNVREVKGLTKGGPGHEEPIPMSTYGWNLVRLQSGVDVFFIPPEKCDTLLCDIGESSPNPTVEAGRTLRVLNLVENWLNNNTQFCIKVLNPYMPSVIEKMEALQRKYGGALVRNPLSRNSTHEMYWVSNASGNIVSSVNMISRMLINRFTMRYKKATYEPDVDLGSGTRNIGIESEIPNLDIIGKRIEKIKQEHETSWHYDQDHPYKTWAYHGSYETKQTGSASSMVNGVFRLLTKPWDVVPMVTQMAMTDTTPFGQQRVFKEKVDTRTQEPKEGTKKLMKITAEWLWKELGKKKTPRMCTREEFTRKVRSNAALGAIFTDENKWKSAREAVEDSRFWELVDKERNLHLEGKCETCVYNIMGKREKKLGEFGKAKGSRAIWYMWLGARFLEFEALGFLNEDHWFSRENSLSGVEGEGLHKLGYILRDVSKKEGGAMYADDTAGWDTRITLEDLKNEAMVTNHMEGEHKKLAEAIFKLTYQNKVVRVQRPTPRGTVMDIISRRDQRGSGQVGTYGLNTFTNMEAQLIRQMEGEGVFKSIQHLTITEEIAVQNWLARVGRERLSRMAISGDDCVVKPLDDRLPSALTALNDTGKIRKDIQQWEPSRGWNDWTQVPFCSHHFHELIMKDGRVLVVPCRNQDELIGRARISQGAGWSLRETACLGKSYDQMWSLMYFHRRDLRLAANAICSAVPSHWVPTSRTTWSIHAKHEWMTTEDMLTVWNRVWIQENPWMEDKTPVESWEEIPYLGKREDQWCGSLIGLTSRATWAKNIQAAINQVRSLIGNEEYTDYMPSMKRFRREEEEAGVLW

Vero = Vero cell cytotoxicity, cytotoxicity control for flavivirus capping enzyme inhibitors (AID 588742); format: functional; conditions: Chlorocebus sabaeus
[12] = HepG2 cell cytotoxicity, dose response, cytotoxicity control, cherry-picks, set 5 (AID 1053118); format: functional, cell-based
[13] = non-specific cell cytotoxicity, dose response, cytotoxicity control for PAX8 inhibitor project, plate reader, dry powder samples (AID 743021); format: functional, cell-based
Protein Tat = Protein Tat (Human immunodeficiency virus type 1 group M subtype B (isolate HXB2)(HIV-1), UniProt P04608); format: functional;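 further: tat binding to TAR RNA read out by fluorescence polarization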
Sequence of Protein Tat (P04608 whole entry): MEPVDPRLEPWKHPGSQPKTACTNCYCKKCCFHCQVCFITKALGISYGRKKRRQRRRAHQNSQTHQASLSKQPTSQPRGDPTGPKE

[14] = HEK293 cell cytotoxicity, dose response, cytotoxicity control, cherry-picks, set 5 (AID 1053117); format: functional, cell-based
Paired box protein Pax-8 = Paired box protein Pax-8 (Homo sapiens, UniProt Q06710); assay: inhibitors of PAX8-driven TPO luciferase reporter, dose response, RMG-I cells, cherry-pick (AID 687027); format: functional, cell-based;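 further: luciferase reporter driven by Pax8 target thyroperoxidase promoter measured by SteadyGlo luminescence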
Sequence of Paired box protein Pax-8 (Q06710 whole entry): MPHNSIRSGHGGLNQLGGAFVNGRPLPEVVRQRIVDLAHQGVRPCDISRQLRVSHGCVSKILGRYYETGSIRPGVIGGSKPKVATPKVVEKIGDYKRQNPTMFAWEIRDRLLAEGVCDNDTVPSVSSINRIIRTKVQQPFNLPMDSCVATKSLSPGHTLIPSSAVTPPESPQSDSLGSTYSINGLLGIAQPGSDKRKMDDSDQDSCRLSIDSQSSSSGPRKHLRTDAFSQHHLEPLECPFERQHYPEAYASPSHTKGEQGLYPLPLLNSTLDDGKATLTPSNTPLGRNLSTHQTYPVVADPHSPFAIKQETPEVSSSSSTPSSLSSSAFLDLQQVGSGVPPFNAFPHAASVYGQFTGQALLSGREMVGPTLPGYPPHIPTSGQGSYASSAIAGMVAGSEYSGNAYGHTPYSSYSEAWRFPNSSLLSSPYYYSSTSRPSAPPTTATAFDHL

[15] = target: C-C chemokine receptor type 6 (Homo sapiens, UniProt P51684); assay: CCR6 receptor antagonists, dose response, cell-based, luminescent beta-arrestin readout (AID 504728); format: functional
Sequence of C-C chemokine receptor type 6 (P51684 whole entry): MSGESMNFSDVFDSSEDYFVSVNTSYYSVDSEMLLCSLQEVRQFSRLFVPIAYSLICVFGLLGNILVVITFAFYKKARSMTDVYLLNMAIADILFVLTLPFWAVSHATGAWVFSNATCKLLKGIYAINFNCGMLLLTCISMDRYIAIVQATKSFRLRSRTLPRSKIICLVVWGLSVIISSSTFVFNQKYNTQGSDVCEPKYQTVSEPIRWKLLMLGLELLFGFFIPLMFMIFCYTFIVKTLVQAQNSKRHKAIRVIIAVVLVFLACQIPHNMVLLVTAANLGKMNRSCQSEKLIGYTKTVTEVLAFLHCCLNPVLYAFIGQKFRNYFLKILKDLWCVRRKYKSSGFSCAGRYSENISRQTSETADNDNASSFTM

[16] = target: T2, Rac GTPase-activating protein 1 (Homo sapiens, UniProt Q9H0H5); assay: MgcRacGAP GTPase-activating activity inhibitors, confirmation, biochemical, ADP Hunter fluorescence, primary and confirmatory (AID 624330); format: functional
T2 sequence (Q9H0H5 whole entry): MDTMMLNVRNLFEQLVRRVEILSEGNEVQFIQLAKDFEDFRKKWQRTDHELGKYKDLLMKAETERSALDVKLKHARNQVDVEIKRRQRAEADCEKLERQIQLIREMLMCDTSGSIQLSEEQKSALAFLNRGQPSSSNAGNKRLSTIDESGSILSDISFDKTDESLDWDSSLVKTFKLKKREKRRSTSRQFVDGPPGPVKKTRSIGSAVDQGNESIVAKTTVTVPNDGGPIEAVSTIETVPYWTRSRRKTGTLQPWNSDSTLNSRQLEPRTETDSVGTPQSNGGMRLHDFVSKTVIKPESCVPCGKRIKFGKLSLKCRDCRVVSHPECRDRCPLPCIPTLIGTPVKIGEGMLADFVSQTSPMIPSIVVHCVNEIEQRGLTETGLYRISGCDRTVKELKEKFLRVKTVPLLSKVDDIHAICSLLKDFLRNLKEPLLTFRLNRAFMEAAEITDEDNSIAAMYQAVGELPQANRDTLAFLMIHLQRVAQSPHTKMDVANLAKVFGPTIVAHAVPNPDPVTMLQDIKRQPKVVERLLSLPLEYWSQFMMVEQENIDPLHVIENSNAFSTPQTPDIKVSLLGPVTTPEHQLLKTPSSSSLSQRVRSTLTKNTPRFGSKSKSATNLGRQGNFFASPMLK

[17] = HeLa cell cytotoxicity, dose response, cytotoxicity control for MgcRacGAP inhibitor project (AID 624300); format: functional

Structure (SMILES): COc1ccc(N(C(=O)CCl)C(C(=O)NCCc2ccccc2)c2nc(C)cs2)cc1Cl (stereo not drawn)
AC50 [1]: 8.26 µM (active)
AC50 [2]: 8.54 µM (active)
AC50 [3]: 32.7 µM (active)
AC50 [4]: 19.8 µM (active)

IC50 (Mu-type opioid receptor): 2.89 µM (active)
IC50 [5]: > 32 µM (inactive)
IC50 [6]: > 32 µM (inactive)
IC50 [7]: 10.2 µM (inactive)
Structure (SMILES): Cc1ccc(S(=O)(=O)N2CCc3ccc(C(=O)NCCN(Cc4ccccc4)C(C)C)cc3C2)cc1

Structure (SMILES): CC1OC(CC(=O)O)CC2=C1C(=O)c1c(O)cccc1C2=O (stereo not drawn) [NANAOMYCIN]
CC50 [8]: 0.69 µM (active)
IC50 (Beta-galactosidase): > 66.6 µM (inactive)
AC50 [9]: 0.779 µM (active)
AC50 [10]: 0.262 µM (active)
AC50 [11]: 0.485 µM (active)
IC50 (Genome polyprotein): 5.04 µM (active)
CC50 (Vero): 0.72 µM (active)
AC50 [12]: 0.37 µM (active)
AC50 [13]: 3.45 µM (active)
IC50 (Protein Tat): > 100 µM (active)
AC50 [14]: 2.5 µM (active)
AC50 (Paired box protein Pax-8): 0.469 µM (active)
IC50 [15]: > 66.6 µM (inactive)
IC50 [16]: 76.4 µM (active)
CC50 [17]: 5.86 µM (active)

— ChEMBL document CHEMBL1201862, “PubChem BioAssay data set” (2004)
